# Patent US20230270148A1, “BITTER BLOCKERS AND RELATED METHODS OF USE” (Conagen Inc., priority 2020, published 2023)
# Assays:
# [1] = tested on: full spectrum CBD hemp oil nanoemulsion; test: Sensory evaluation: bitterness reduction of full spectrum CBD hemp oil; type: in vivo; settings: dosage 50 or 100 ppm per sample
# Protocol: The bitterness blocker candidates listed in Table 1 were prepared into a 1% sample solution with propylene glycol and heated to ensure complete solubilization. […] A full spectrum CBD hemp oil was emulsified into a water-soluble nanoemulsion first, to which was added the respective sample solution. […] A trained sensory evaluator was asked to estimate the perceived bitterness reduction against the control, as well as to provide comments on how the addition of the individual sample solution modulated the taste and mouth feel profile of the resulting oil nanoemulsion.
# [2] = tested on: cough syrup ROBITUSSIN DM (dextromethorphan HBr and guaifenesin); test: Sensory evaluation: bitterness reduction of cough syrup ROBITUSSIN DM; type: in vivo; settings: dosage 50 or 100 ppm per sample
# Protocol: The bitterness blocker candidates listed in Table 1 were prepared into a 1% sample solution with propylene glycol and heated to ensure complete solubilization. […] Individually, the respective sample solution was added to a cough syrup sold under the trade name ROBITUSSIN® DM. The bitter-tasting agents contained in the cough syrup were dextromethorphan HBr USP 20 mg and guaifenesin USP 400 mg (as measured for each 20 ml serving, or 21000 mg/l of bitter tastants in total). A trained sensory evaluator was asked to estimate the perceived bitterness reduction against the control, as well as to provide comments on how the addition of the individual sample solution modulated the taste and mouth feel profile of the resulting cough syrup.
compound,measurement,setting,value
"COc1cc([C@@H]2CC(=O)c3c(O)cc(O)cc3O2)ccc1O[C@@H]1O[C@H](CO)[C@@H](O)[C@H](O)[C@H]1O [BB11, Homoeriodictyol 4′-O-glucoside]",Comments,[1],Nice upfront bitterness reduction
same,Estimated % bitterness reduction,[1],60%
same,Estimated % bitterness reduction,[2]; 21000 mg/l of bitter tastants,60%
same,Comments,[2],"Less bitter, smoother, more"
